Measured values published in paper PMC3742170, “Enzymatic Properties of Populus α- and β-NAD-ME Recombinant Proteins” (International Journal of Molecular Sciences, 2013).

Key:
PtNAD-ME2 = target: T1, PtNAD-ME2 (Populus trichocarpa, UniProt B9MVC4); experiment: inhibition of malate decarboxylation, NADH at […] nm; format: biochemical; settings: inhibitor; nonsaturating malate, saturating NAD, optimum pH 7.2
T1 construct: gene POPTR_014G043700; mature form without mitochondrial signal peptide; pGEX-6p-3, N-terminal GST cut with PreScission; E. coli BL21
T1 sequence (B9MVC4 36-627): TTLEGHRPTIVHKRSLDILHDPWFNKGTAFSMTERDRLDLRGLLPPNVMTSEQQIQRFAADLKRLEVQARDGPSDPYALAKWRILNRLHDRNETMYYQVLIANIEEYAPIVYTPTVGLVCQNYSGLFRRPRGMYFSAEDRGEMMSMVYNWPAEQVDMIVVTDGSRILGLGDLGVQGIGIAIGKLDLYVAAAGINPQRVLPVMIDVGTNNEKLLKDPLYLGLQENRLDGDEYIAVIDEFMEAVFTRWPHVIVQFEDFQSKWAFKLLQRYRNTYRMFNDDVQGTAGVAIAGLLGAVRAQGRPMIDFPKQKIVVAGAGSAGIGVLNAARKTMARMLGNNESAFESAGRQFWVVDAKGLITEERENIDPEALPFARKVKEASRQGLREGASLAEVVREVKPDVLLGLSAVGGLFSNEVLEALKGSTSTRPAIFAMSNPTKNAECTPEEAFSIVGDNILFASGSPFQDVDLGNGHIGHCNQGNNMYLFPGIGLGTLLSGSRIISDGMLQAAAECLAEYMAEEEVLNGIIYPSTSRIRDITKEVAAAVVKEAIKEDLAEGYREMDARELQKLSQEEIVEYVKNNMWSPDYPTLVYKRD

PtNAD-ME1 = target: T2, PtNAD-ME1 (Populus trichocarpa, UniProt A0ACC0TE46); experiment: inhibition of malate decarboxylation, NADH at […] nm; format: biochemical; settings: inhibitor; nonsaturating malate, saturating NAD, optimum pH 7.2
T2 construct: gene POPTR_002G135300v4; mature form without mitochondrial signal peptide; pGEX-6p-3, N-terminal GST cut with PreScission; E. coli BL21; about 67 kDa on SDS-PAGE; EC 1.1.1.39
T2 sequence (A0ACC0TE46 34-627): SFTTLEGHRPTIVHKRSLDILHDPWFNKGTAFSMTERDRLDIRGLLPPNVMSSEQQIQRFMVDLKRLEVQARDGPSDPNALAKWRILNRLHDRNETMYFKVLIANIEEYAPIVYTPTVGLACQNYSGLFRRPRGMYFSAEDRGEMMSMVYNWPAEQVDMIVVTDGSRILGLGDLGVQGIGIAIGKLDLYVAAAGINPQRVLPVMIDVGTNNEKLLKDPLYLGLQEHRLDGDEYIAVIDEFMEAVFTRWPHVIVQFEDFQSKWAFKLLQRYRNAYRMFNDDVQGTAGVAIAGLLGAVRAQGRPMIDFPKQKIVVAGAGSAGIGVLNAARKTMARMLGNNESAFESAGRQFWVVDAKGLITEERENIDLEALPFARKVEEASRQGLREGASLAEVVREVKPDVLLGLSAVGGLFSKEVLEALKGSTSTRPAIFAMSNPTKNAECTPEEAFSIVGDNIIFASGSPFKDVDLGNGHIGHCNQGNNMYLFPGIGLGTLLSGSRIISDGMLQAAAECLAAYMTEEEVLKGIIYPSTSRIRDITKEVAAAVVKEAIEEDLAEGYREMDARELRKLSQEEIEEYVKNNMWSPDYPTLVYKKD

PtNAD-ME4 = target: T3, PtNAD-ME4 (Populus trichocarpa, UniProt A0A2K1XS69); experiment: inhibition of malate decarboxylation, NADH at […] nm; format: biochemical; settings: inhibitor; nonsaturating malate, saturating NAD, optimum pH 7.4
T3 construct: gene POPTR_014G079900; mature form without mitochondrial signal peptide; pGEX-6p-3, N-terminal GST cut with PreScission; E. coli BL21
T3 sequence (A0A2K1XS69 22-607): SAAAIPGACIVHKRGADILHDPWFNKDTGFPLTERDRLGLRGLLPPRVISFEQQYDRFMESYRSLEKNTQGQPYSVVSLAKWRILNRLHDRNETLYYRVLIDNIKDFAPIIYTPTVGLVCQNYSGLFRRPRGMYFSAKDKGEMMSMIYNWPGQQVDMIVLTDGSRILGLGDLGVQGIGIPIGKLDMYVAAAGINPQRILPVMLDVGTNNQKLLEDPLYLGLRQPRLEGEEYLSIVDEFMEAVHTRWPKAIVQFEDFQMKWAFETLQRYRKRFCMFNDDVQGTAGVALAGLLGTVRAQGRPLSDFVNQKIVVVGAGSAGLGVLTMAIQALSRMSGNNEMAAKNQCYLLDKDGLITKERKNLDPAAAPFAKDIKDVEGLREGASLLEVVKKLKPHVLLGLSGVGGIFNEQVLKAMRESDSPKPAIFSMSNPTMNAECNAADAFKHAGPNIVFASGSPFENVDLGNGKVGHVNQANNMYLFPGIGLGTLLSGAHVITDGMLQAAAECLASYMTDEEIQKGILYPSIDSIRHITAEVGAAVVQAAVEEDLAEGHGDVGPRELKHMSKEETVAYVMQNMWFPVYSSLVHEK

PtNAD-ME3 = target: T4, PtNAD-ME3 (Populus trichocarpa, UniProt B9GPX3); experiment: inhibition of malate decarboxylation, NADH at […] nm; format: biochemical; settings: inhibitor; nonsaturating malate, saturating NAD, optimum pH 7.4
T4 construct: gene POPTR_002G156000; mature form without mitochondrial signal peptide; pGEX-6p-3, N-terminal GST cut with PreScission; E. coli BL21; about 61 kDa on SDS-PAGE
T4 sequence (B9GPX3 23-607): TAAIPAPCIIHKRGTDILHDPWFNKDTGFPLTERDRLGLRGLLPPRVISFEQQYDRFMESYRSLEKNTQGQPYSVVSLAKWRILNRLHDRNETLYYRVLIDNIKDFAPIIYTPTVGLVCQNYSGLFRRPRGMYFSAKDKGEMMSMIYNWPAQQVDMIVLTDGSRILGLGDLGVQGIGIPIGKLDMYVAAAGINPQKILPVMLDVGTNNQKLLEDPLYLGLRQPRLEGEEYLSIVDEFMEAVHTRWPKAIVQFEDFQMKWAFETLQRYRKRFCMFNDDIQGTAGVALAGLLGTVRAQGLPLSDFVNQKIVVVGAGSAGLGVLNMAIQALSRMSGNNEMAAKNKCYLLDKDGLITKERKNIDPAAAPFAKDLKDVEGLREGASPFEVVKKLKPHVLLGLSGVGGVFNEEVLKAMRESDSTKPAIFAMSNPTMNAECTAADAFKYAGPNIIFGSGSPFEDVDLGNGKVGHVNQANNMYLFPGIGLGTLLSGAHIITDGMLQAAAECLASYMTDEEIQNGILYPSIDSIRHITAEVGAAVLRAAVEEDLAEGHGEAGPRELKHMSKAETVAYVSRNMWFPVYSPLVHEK

purified protein [1] = substrate: O=C(O)C[C@H](O)C(=O)O; experiment: purified protein; format: biochemical, Populus trichocarpa; settings: saturating NAD, 10 mM MnCl2, 150 mM Mes/NaOH, optimum pH 7.4
purified protein [2] = substrate: NC(=O)c1ccc[n+]([C@@H]2O[C@H](COP(=O)(O)OP(=O)(O)OC[C@H]3O[C@@H](n4cnc5c(N)ncnc54)[C@H](O)[C@@H]3O)[C@@H](O)[C@H]2O)c1; experiment: purified protein; format: biochemical, Populus trichocarpa; settings: saturating malate, 10 mM MnCl2, 150 mM Mes/NaOH, optimum pH 7.4

In the case of `O=C(O)CC(O)(CC(=O)O)C(=O)O` [citrate], the “% activity” value (PtNAD-ME2) is reported as “OAA and citrate inhibited the activities of all”, the “% activity” value (PtNAD-ME1) is reported as “OAA and citrate inhibited the activities of all” and the “% activity” value (PtNAD-ME4) is reported as “OAA and citrate inhibited the activities of all”. For the same molecule, the “% activity” value (PtNAD-ME3) was “OAA and citrate inhibited the activities of all”.

For `O=C(O)CC(=O)C(=O)O` [oxalacetate], the “% activity” value (PtNAD-ME2) was “OAA and citrate inhibited the activities of all”, the “% activity” value (PtNAD-ME1) was “OAA and citrate inhibited the activities of all” and the “% activity” value (PtNAD-ME4) was “OAA and citrate inhibited the activities of all”. The “% activity” value (PtNAD-ME3) was “OAA and citrate inhibited the activities of all”.

B1: PtNAD-ME3 (Populus trichocarpa) (protein)
chain: TAAIPAPCIIHKRGTDILHDPWFNKDTGFPLTERDRLGLRGLLPPRVISFEQQYDRFMESYRSLEKNTQGQPYSVVSLAKWRILNRLHDRNETLYYRVLIDNIKDFAPIIYTPTVGLVCQNYSGLFRRPRGMYFSAKDKGEMMSMIYNWPAQQVDMIVLTDGSRILGLGDLGVQGIGIPIGKLDMYVAAAGINPQKILPVMLDVGTNNQKLLEDPLYLGLRQPRLEGEEYLSIVDEFMEAVHTRWPKAIVQFEDFQMKWAFETLQRYRKRFCMFNDDIQGTAGVALAGLLGTVRAQGLPLSDFVNQKIVVVGAGSAGLGVLNMAIQALSRMSGNNEMAAKNKCYLLDKDGLITKERKNIDPAAAPFAKDLKDVEGLREGASPFEVVKKLKPHVLLGLSGVGGVFNEEVLKAMRESDSTKPAIFAMSNPTMNAECTAADAFKYAGPNIIFGSGSPFEDVDLGNGKVGHVNQANNMYLFPGIGLGTLLSGAHIITDGMLQAAAECLASYMTDEEIQNGILYPSIDSIRHITAEVGAAVLRAAVEEDLAEGHGEAGPRELKHMSKAETVAYVSRNMWFPVYSPLVHEK
notes: mature form without mitochondrial signal peptide; pGEX-6p-3, N-terminal GST cut with PreScission; E. coli BL21; about 61 kDa on SDS-PAGE
With B1 the Km (purified protein [1]) was 1300 µM, the Km (purified protein [2]) was 450 µM and the kcat (purified protein [2]) was 1.3 s⁻¹. For the same molecule, the kcat/Km (purified protein [2]) was 2900 M⁻¹ s⁻¹.
